Measured values from patent US20030170791A1, “Gene family encoding membrane steroid receptors” (priority 2001, published 2003).

Legend:
[1] = target: T1, seatrout recombinant mPR produced in E. coli (Cynoscion nebulosus, UniProt Q801D8); experiment: Steroid binding to recombinant seatrout mPR produced in E. coli (single-point, competition, saturation, kinetics); conditions: for specific binding of 3H-steroid (steroid specificity): single-point assay, 10 nM 3H-steroid with or without 100-fold excess non-radioactive steroid
T1 construct: The coding region of the steroid membrane receptor was amplified by PCR from a full-length cDNA plasmid clone; made in house; host or cells: E. coli BL21 (DE3), pET vector
T1 sequence (Q801D8 1-352): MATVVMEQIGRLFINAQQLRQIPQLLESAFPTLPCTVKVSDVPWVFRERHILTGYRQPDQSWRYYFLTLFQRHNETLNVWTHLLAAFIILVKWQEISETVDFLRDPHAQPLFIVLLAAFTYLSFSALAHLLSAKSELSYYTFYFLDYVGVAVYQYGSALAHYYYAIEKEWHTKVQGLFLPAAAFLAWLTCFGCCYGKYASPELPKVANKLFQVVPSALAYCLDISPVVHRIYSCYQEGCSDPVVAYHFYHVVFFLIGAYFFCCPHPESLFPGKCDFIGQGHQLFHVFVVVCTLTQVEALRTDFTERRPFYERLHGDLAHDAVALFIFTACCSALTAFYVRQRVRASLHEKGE
Procedure: The cloned membrane progestin receptor was expressed in E. coli and the binding of the recombinant protein to steroids was analyzed by a radiolabeled receptor assay.
(§1) The PCR products were purified by electrophoresis using low-melting gel and a QIAquick Gel Extraction Kit. The purified PCR product was ligated into a pET expression vector. The pET vector was transformed into BL21 (DE3) E. coli cells. The positive clones were purified and sequenced. The plasmid without an insert was used as control. Recombinant protein was induced with IPTG at 25° C. and soluble recombinant proteins were extracted and analyzed.
(§2) Initially, steroid specificity of the recombinant receptor was determined from single-point competition assays using 10 nM ^3H-steroid in the absence (total binding) or presence of 100-fold excess non-radioactive steroid (nonspecific binding, FIG. 8).
Full competition curves were generated with 10 nM 3H-progesterone (total binding) or in combination with 1 nM-10 μM of various steroids (FIG. 8).
(§3) Saturation kinetics of H^3-progesterone binding to the recombinant receptor were conducted with 7 progesterone concentrations (range 0.5-40 nM) in the absence (total binding) or presence of 1 μM excess cold steroid (nonspecific binding, FIG. 11).

[2] = target: T2, recombinant human kidney mSR (Homo sapiens, UniProt Q9NXK6); experiment: 3H-progesterone binding to recombinant human kidney mSR (saturation, kinetics, competition); conditions: for displacement of 3H-progesterone: competition curves, 10 nM 3H-progesterone, 1 nM-10 μM competitor
T2 construct: The coding region of the steroid membrane receptor was amplified by PCR from a full-length cDNA plasmid clone; made in house; host or cells: E. coli
T2 sequence (Q9NXK6 1-330): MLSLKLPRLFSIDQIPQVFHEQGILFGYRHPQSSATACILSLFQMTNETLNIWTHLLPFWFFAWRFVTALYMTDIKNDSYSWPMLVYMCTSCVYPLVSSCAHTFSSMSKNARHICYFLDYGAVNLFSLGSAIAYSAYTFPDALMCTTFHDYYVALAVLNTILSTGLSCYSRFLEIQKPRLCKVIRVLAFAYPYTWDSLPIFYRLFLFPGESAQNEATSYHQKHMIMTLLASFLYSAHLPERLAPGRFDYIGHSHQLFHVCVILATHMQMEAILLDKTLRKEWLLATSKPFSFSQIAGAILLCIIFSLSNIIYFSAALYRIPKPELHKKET
Procedure: (§4) Receptor Binding of Human Membrane Steroid Receptors. Mouse testicular and human testicular and kidney mSR were expressed in E. coli and binding of the recombinant proteins to steroids was studied. The membrane steroid receptor from human brain was not expressed since the clone only contains part of the coding region.
(§5) Binding Characters of Human Kidney Membrane Steroid Receptor. Saturation kinetics of ^3H-progesterone binding to the recombinant human kidney mSR was conducted with 7 progesterone concentrations (range 0.5-40 nM) in the absence (total binding) or presence of 1 μM excess cold steroid (nonspecific binding, FIG. 23).
The specific binding dissociated quickly with a t1/2 dissociation of 2 minutes (FIG. 24).
Full competition curves were generated with 10 nM 3 H-progesterone (total binding) or in combination with 1 nM-10 μM of various steroids (FIG. 25, 26). […] This binding was very specific for 21 carbon steroids lacking a functional group at the 11 position.

E. coli control proteins = experiment: Steroid binding to E. coli control proteins (vector without insert); conditions: for binding to the control proteins: single-point assay, 10 nM 3H-steroid
Procedure: as §1
as §2, with “8). […] No binding of P4 and 17-P to the control proteins was observed (FIG. 7).” for “8).”
as §3

[3] = target: T3, solubilized seatrout ovarian membrane progestin (20β-S) receptor (Cynoscion nebulosus, UniProt Q801D8); experiment: [3H]20β-S binding to solubilized seatrout ovarian membrane progestin receptor (DCC assay; saturation, Scatchard, association/dissociation); design: species or system spotted seatrout (Cynoscion nebulosus)
T3 sequence (Q801D8 1-352): T1 sequence (Q801D8 1-352)
Procedure: 20β-S receptor binding in solubilized membrane preparations was assayed using dextran-coated charcoal (DCC) to separate bound from steroid. The incubation conditions were similar to those used for the intact membrane preparation with the exception that 100-fold excess unlabeled 20β-S was used to determine non-specific binding. The incubation was terminated by adding 1-ml ice-cold DCC suspension (0.1 g dextran T-70 and 1 g charcoal per 100 ml HA buffer). The tubes were vortexed and the reaction mixture was incubated on ice for 5 minutes to absorb free steroid followed by centrifugation at 3200 g for 10 minutes at 4° C. The radioactivities of the filters or supernatants were measured using Beckman LS 6000SC Scintillation Counter (Beckman Instruments Inc., Houston, Tex.).
Saturation kinetics of [^3H]20β-S binding to the solubilized membrane receptor was conducted with six radiolabeled 20β-S concentrations (range 0.25-10 nM) in the absence (total binding) or presence of 100-fold excess cold steroid (non-specific binding). The dissociation constant (Kd) and receptor concentration (Bmax) were calculated from Scatchard plots. One point assays were conducted with 5 nM radiolabeled 20β-S with or without 100-fold excess unlabeled steroid.
The rate of 20β-S association to the solubilized receptor was determined by measuring the specific binding of [^3H]20β-S after-incubation periods of 30 seconds to 24 hours. The rate of dissociation was determined by first allowing samples to equilibrate with tracer for 30 minutes before the addition of 100-fold excess unlabeled 20β-S and incubation for periods of 30 seconds to 24 hours.

[4] = target: T4, recombinant mouse testicular mSR (Mus musculus, UniProt Q80ZE5); experiment: Saturation/Scatchard analysis of 3H-progesterone binding to recombinant mouse testicular mSR; conditions: Scatchard analysis
T4 construct: The coding region of the steroid membrane receptor was amplified by PCR from a full-length cDNA plasmid clone; made in house; host or cells: E. coli
T4 sequence (Q80ZE5 1-354): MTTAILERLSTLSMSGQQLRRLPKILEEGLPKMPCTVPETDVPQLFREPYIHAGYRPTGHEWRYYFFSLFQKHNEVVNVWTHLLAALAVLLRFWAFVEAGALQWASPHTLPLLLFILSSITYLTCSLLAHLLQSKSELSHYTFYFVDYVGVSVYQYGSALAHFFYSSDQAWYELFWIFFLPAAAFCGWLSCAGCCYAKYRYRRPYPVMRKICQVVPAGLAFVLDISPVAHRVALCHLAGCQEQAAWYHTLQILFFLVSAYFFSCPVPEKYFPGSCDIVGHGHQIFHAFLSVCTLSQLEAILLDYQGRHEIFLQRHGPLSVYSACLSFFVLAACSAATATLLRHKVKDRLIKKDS
Procedure: as §4
as §5, with “Characteristics” for “Characters”, “Mouse Testicular” for “Human Kidney”, “mouse testicular” for “human kidney”, “of” for “of 1 μM”, “21).” for “23).”

[5] = target: T5, recombinant human testicular mSR (Homo sapiens, UniProt Q86WK9); experiment: Saturation/Scatchard analysis of 3H-progesterone binding to recombinant human testicular mSR; conditions: Scatchard analysis
T5 construct: The coding region of the steroid membrane receptor was amplified by PCR from a full-length cDNA plasmid clone; made in house; host or cells: E. coli
T5 sequence (Q86WK9 1-346): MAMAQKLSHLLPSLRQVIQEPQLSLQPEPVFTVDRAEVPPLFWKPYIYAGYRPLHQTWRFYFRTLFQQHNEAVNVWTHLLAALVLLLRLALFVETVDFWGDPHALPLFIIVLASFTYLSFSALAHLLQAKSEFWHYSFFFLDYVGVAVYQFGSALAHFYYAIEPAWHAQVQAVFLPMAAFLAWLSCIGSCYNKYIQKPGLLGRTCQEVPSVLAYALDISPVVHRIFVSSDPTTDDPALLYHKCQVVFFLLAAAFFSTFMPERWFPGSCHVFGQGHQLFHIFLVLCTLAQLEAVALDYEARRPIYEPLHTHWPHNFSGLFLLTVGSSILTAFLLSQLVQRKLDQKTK
Procedure: as §4
as §5, with “Characteristics” for “Characters”, “Testicular” for “Kidney”, “testicular” for “kidney”, “22).” for “23).”

C[C@@H](O)[C@@]1(O)CC[C@H]2[C@@H]3CCC4=CC(=O)CC[C@]4(C)[C@H]3CC[C@@]21C [17,20β-P, 17,20β-dihydroxy-4-pregnen-3-one] was tested, and the “specific binding of 3H-steroid (steroid specificity)” value (from here on “specific binding of 3H-steroid”) [1] was “did not show any specific binding”.
With Vitamin D the “displacement of 3H-progesterone” value [2] was “no displacement”.
For CC(=O)[C@@]1(O)CC[C@H]2[C@@H]3CCC4=CC(=O)CC[C@]4(C)[C@H]3CC[C@@]21C [17-P, 17-hydroxyprogesterone], the “binding to the control proteins” value (E. coli control proteins) was “No binding”, the “displacement of 3H-progesterone” value [2] was “equipotent with P4” and the “displacement of 3H-progesterone” value ([1]; competition curves, 10 nM 3H-progesterone, 1 nM-10 μM competitor) was “equipotent with P4”. The “specific binding of 3H-steroid” value [1] was “high affinity”.
For CC12CCC(=O)C=C1CCC1C2CCC2(C)C1CCC2(O)C(O)CO (stereo not drawn) [20β-S, 17,20β,21-trihydroxy-4-pregnen-3-one], the Bmax ([3]; Scatchard analysis, [3H]20β-S) was 0.204 pmol g^−1 ovary, the “time to full displacement” value ([3]; after 100-fold excess unlabeled 20β-S) was no more than 20 min and the “time to reach saturation of binding” value ([3]; equilibrium study) was no more than 15 min. For the same compound, the “concentration at which saturation was achieved” value ([3]; saturation analysis) was “approximately 10 nM” and the “specific binding of 3H-steroid” value [1] was “did not show any specific binding”.
CC[C@H](C)[C@@H]1NC(=O)[C@H](Cc2ccc(O)cc2)NC(=O)[C@@H](N)CSSC[C@@H](C(=O)N2CCC[C@H]2C(=O)N[C@@H](CC(C)C)C(=O)NCC(N)=O)NC(=O)[C@H](CC(N)=O)NC(=O)[C@H](CCC(N)=O)NC1=O [oxytocin] was tested, and the “displacement of 3H-progesterone” value [2] was “no displacement”.
C[C@]12CC[C@H]3[C@@H](CCC4=CC(=O)CC[C@@]43C)[C@@H]1CC[C@@H]2O [testosterone] was tested, and the “specific binding of 3H-steroid” value [1] was “no specific binding”.
With C[C@]12CC(=O)[C@H]3[C@@H](CCC4=CC(=O)CC[C@@]43C)[C@@H]1CC[C@@H]2O [11-ketotestosterone] the “specific binding of 3H-steroid” value [1] was “no specific binding”.
In the case of C[C@]12CCC(=O)C[C@@H]1CC[C@@H]1[C@@H]2CC[C@]2(C)[C@@H](O)CC[C@@H]12 [5α-dihydrotestosterone], the “specific binding of 3H-steroid” value [1] is reported as “no specific binding”.
For CC(=O)[C@H]1CC[C@H]2[C@@H]3CCC4=CC(=O)CC[C@]4(C)[C@H]3CC[C@]12C [progesterone], the “specific binding to E. coli control proteins” value (E. coli control proteins; saturation analysis, 3H-progesterone) was “no specific binding”, the “binding to the control proteins” value (E. coli control proteins) was “No binding” and the Bmax ([2]; Scatchard analysis) was 0.54 nM. It also gave a Kd ([2]; Scatchard analysis, 3H-progesterone 0.5-40 nM) of 28 nM, a Bmax [4] of 0.304 nM and a Kd ([4]; 3H-progesterone 0.5-40 nM) of 29 nM. The Bmax [5] was 0.47 nM, the Kd ([5]; 3H-progesterone 0.5-40 nM) was 37 nM and the Kd [1] was 30 nM. For the same compound, the Bmax ([1]; Scatchard analysis, 3H-progesterone) was 0.49 nM and the “specific binding of 3H-steroid” value [1] was “Highest specific binding”.
